US20200353038A1, “PIF-TRANSFECTED CELLS AND METHODS OF USE” (BIOINCEPT, LLC, priority 2013, published 2020)

Columns and labels:
HEK293 cells = experiment: Transient transfection in HEK293 cells, toxicity; assay type: cell-based, human; conditions: intracellular expression, cultured for more than 72 hrs
IDE = molecular target: T1, IDE (Homo sapiens, UniProt P14735); experiment: ProtoArray binding, IDE
T1 construct: purchased Invitrogen

Kv1.3b = experiment: ProtoArray binding, Kv1.3b; parameters: species or system human
female Swiss mice = conditions: Alzet pump subcutaneously, PIF 4.2 mg/ml (1 mg/kg/die), read days 14-16 pi
Description: 30 Swiss female mice and 30 Swiss male mice, 8-10 weeks old, were matched overnight for three consecutive days. The next morning, the presence of a vaginal plug was verified. 20 female Swiss mice positive for the vaginal plug were selected for the experiment.
Mice at days 1-3 post-insemination (pi) were anesthetized with ketamine and domitor 200 μl. […] The mice were located singularly in separated cages. […] At days 6-8 pi, the mice were treated with LPS […] or with PBS. At days 14-16 pi, the mice were euthanized and investigated for vital fetuses and for aborts. Mice with no vital fetuses nor signs of abortion were considered to carry 10 aborts for statistical purposes. The groups were compared with Fisher exact test, p<0.05 was considered significant (FIG. 22).

PBMCs = tested on: PBMCs
Text: Blood samples without identifiers were obtained from males and nonpregnant females after obtaining consent at MDSPS, WA. The studies were approved by the ethical committee at the institute. From the excess specimen, PBMCs were isolated using standard Ficoll Hypaque, a density gradient method. […] Samples were collected in duplicate at 24 and 48 hrs and used for global mRNA analysis.
After culture, PBMCs were collected and the chemically fragmented cRNA was then hybridized on Affymetrix HGU133 Plus 2.0 human chips in a GeneChip Hybridization Oven 640 (Affymetrix) and screened for 18,400 human genes and expressed-sequence tags, followed by fluorescence labeling with Fluidics Station 450 (Affymetrix) and optical scanning with an Affymetrix GeneChip Scanner 3000 (Codon Biosciences, LP, Houston, Tex.). P0.05 and >2-fold changes were considered as significant. Data is deposited at NCBI Geo (GSE18291).
For gene experiments, data was first analyzed using student's t-test, with p<0.05 results, followed by fold-change testing, with a cutoff 2-fold only reported.

Clorf87 = Clorf87 (Homo sapiens, UniProt Q8N0U7); conditions: ProtoArray, minor binding target
Description: (§1) Unbound probe was washed off, and arrays were assessed by a fluorescence microarray scanner. […] As a negative control, an array was incubated with wash buffer while calmodulin kinase was used as a positive control detected by Alexa Fluor 647-conjugated anti-VS antibody.

Cass4 = Cass4 (Homo sapiens, UniProt Q9NQ75); conditions: ProtoArray, minor binding target
Description: as §1

[1] = molecular target: Platelet-Derived Growth Factor-β(PDGFP) (Homo sapiens, UniProt P01127); conditions: ProtoArray
Description: as §1

NEK11 = NEK11 (Homo sapiens, UniProt Q8NG66); conditions: ProtoArray, minor binding target
Description: as §1

[2] = molecular target: outer dense fiber of the sperm tail-2 (ODF2L) (Homo sapiens, UniProt Q9ULJ1); conditions: ProtoArray, minor binding target
Description: as §1

[3] = molecular target: Tissue-Specific Transplantation Antigen P35 (FX Enzyme) (Homo sapiens, UniProt Q13630); conditions: ProtoArray
Description: as §1

ITK = ITK (Homo sapiens, UniProt Q08881); conditions: ProtoArray
Description: as §1

DAPK3, (ZIPK) = DAPK3, (ZIPK) (Homo sapiens, UniProt O43293); conditions: ProtoArray, minor binding target
Description: as §1

[4] = tested on: 9000 human protein targets; experiment: Alexa-PIF interaction with ProtoArray Human Protein Microarrays v5.0; assay type: binding; conditions: PIF-Alexa 647 250 nM and 2.5 pM; protein not named
[5] = cell state not given, PIF 50 nM
[6] = following co-activation (anti-CD3/anti-CD28), PIF 50 nM
[7] = naive cells (by context), PIF 50 nM
[8] = naive cells, PIF 50 nM, up to 48 hrs

Chain of Kv1.3b (Q13303 40-367 limits assumed): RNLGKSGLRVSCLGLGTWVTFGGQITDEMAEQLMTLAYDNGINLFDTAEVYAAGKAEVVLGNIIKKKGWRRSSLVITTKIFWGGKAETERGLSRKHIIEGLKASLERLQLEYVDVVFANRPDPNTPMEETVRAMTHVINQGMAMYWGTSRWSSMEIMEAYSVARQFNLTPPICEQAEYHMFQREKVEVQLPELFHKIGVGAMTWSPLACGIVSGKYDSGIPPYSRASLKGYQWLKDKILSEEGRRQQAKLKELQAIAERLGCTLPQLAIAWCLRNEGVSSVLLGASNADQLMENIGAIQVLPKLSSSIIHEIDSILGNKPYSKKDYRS
Chain of DAPK3, (ZIPK) (O43293 whole entry): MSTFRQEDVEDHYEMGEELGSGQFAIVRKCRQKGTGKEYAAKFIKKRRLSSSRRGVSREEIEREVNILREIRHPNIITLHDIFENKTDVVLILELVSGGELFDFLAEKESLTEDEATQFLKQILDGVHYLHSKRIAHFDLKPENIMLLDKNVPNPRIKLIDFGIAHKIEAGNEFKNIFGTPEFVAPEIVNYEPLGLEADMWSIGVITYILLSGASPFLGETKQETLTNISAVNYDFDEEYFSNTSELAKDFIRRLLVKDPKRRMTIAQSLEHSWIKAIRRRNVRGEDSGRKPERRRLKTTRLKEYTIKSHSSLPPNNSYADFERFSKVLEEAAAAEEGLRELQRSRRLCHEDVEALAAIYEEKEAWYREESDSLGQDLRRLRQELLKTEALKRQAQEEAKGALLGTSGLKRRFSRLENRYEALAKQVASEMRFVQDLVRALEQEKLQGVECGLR
Chain of NEK11 (Q8NG66 whole entry): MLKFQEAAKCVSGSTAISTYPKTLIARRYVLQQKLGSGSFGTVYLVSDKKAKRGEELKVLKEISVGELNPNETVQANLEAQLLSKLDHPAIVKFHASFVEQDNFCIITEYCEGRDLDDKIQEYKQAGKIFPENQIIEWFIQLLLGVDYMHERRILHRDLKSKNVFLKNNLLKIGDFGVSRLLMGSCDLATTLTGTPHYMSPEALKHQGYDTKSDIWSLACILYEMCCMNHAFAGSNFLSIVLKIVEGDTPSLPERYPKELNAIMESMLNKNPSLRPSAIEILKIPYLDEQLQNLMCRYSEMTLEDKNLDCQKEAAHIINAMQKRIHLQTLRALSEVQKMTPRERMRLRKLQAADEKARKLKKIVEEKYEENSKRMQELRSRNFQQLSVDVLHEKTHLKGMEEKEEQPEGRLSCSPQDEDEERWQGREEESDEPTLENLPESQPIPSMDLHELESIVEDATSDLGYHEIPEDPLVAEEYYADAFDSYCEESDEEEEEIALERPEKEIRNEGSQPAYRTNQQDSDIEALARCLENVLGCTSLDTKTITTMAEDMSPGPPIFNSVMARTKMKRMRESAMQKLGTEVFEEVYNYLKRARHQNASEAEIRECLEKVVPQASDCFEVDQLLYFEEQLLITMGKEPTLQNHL
Chain of outer dense fiber of the sperm tail-2 (ODF2L) (Q9ULJ1 whole entry): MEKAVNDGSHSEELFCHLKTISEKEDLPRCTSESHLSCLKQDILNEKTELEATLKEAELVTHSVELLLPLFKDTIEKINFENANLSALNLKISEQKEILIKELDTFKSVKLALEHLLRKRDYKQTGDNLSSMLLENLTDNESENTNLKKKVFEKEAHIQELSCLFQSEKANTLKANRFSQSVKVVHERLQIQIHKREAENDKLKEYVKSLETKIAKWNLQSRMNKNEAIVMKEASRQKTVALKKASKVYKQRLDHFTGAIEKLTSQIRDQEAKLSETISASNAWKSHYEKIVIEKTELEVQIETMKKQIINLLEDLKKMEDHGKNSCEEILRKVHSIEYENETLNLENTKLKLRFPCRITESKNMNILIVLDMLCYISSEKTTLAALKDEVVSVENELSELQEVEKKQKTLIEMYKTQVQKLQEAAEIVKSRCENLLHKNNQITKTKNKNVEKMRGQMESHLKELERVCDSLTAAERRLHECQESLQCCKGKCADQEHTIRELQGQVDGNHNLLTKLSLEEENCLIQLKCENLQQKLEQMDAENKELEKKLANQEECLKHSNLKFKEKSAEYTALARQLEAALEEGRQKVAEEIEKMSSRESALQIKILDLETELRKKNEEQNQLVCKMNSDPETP
Chain of ITK (Q08881 whole entry): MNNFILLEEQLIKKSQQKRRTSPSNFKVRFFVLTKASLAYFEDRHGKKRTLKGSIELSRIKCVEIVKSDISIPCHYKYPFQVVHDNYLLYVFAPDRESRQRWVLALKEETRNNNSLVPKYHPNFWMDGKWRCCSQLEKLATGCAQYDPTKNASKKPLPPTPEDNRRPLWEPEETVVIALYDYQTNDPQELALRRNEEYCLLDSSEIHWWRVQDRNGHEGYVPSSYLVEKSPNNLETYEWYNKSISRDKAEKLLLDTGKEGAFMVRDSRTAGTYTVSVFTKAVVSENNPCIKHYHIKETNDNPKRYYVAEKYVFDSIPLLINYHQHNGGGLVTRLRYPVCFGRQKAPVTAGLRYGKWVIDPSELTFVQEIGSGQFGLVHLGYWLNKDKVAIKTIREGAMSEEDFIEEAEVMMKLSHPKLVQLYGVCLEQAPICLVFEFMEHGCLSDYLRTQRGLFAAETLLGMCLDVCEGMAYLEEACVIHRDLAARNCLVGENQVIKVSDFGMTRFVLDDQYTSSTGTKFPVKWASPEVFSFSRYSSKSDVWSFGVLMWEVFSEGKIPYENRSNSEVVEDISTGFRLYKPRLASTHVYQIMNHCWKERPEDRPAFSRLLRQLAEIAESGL
Chain of Platelet-Derived Growth Factor-β(PDGFP) (P01127 82-190): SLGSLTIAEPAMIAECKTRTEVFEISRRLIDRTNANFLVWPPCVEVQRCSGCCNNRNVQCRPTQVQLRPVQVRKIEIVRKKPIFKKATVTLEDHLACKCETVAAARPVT
Chain of Cass4 (Q9NQ75 whole entry): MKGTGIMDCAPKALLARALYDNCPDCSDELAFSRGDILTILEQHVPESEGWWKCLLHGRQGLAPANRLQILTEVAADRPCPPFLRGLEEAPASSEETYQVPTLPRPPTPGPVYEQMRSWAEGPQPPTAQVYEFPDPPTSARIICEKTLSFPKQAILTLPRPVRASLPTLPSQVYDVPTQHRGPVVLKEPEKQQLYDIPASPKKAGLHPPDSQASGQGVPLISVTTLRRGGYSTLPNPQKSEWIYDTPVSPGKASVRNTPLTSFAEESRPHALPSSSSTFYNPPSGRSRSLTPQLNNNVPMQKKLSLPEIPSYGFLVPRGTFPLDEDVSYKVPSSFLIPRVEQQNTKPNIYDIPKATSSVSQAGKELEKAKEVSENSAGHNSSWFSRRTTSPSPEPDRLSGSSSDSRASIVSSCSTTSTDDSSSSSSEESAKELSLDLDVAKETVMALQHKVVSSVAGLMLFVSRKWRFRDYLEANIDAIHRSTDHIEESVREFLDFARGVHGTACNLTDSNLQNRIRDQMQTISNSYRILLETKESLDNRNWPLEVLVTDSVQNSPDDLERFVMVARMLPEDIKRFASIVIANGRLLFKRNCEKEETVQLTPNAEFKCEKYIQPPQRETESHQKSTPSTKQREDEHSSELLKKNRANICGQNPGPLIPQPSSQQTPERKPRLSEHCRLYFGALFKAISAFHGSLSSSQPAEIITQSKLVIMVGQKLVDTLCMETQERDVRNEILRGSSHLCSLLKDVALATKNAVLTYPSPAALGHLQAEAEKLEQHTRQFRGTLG
Chain of Tissue-Specific Transplantation Antigen P35 (FX Enzyme) (Q13630 whole entry): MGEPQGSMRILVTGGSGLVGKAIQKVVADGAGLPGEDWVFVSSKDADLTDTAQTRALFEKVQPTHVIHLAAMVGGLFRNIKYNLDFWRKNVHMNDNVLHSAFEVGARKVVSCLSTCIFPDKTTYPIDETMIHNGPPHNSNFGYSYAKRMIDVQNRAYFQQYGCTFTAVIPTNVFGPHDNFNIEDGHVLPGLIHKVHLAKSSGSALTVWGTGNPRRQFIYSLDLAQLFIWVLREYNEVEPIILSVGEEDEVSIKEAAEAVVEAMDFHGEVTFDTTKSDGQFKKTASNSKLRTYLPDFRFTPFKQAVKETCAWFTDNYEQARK
Chain of Clorf87 (Q8N0U7 whole entry): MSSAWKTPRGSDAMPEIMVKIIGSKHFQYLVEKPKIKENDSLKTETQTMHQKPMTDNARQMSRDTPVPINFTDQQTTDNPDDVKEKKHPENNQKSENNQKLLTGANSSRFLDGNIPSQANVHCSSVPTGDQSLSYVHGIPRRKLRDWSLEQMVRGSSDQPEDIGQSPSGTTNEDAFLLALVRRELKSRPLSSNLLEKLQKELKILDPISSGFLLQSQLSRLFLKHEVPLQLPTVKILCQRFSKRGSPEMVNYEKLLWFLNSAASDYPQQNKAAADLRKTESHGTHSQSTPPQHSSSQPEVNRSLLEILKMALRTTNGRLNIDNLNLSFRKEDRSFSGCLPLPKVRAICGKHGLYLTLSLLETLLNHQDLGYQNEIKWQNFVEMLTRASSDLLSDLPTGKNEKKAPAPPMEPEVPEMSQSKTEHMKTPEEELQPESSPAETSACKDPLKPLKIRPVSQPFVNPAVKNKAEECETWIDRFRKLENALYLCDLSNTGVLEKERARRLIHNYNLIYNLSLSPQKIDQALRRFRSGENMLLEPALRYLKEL

Which “toxicity or cell death of transfected cells” value (HEK293 cells) does the source give for “DYKDDDDKGGGMVRIKPGSANKPSDDGGYPYDVPDYA (FLAG-(Gly)2-PIF-(Gly)2-HA) [FLAG-HA tagged PIF peptide]” here?
Its value is “without signs of toxicity or cell death”.

With MVRIKPGSANKPSDD [PIF] as the substance, how does the “binding to IDE, in words” value (IDE; ProtoArray) read?
Its value is “prime PIF peptide target”.

And the “binding to Kv1.3b channels, in words” value (Kv1.3b; ProtoArray)?
The value was “targets”.

And the LPS-induced abortion (female Swiss mice; LPS 0.1 pg/gr days 6-8 pi)?
Its LPS-induced abortion is “decreases”.

What about the anesthesia-induced abortion (female Swiss mice; ketamine and domitor) of the same substance?
The anesthesia-induced abortion was “prevents”.

And the “IDE encoding gene expression” value (PBMCs; PBMCs exposed to PIF)?
Its value is “not affected”.

And the “Kv1.3b channel genes expression” value (PBMCs; PBMCs exposed to PIF)?
The value was “only minimally affected”.

What about the “six additional macropain genes family members, expression (FIG. 21)” value (PBMCs; PBMCs, PIF 50 nM) of the same substance?
The value was “upregulated”.

And the “ADAM 17 gene expression” value (PBMCs; activated cells (by context), PIF 50 nM)?
Its value is −2.2 fold.

What about the CDC42 gene expression (PBMCs; activated cells, PIF 50 nM) of the same substance?
Its CDC42 gene expression is −2.2 fold.

What about the MCM2 gene expression (PBMCs; activated cells, PIF 50 nM) of the same substance?
Its MCM2 gene expression is 2.8 fold.

What about the “SPEC 1 gene expression” value (PBMCs; activated cells, PIF 50 nM) of the same substance?
The value was −2.2 fold.

And the “TSTA3 (FX) gene expression” value (PBMCs; activated cells, PIF 50 nM)?
Its value is 3.6 fold.

What about the “cell division cycle 25A (CDC25A) gene expression” value (PBMCs; activated cells, PIF 50 nM) of the same substance?
Its value is 6 fold.

What about the osteonectin gene expression (PBMCs; activated cells, PIF 50 nM) of the same substance?
The osteonectin gene expression was −2.2 fold.

What about the “H2A O/L gene expression (decrease)” value (PBMCs; [5]) of the same substance?
Its value is 2 fold.

And the “H2A gene expression (decrease)” value (PBMCs; [5])?
Its value is 4.2 fold.

And the H3F3A gene expression (PBMCs; [5])?
The H3F3A gene expression was −3 fold.

What about the ATP1B1 gene expression (PBMCs; following activation, PIF 50 nM) of the same substance?
Its ATP1B1 gene expression is −2.4 fold.

What about the IGFBP6 gene expression (PBMCs; [6]) of the same substance?
The IGFBP6 gene expression was −2.4 fold.

And the “UDP-glucose dehydrogenase (UGDH) gene expression” value (PBMCs; [6])?
The value was −2 fold.

And the “insulin receptor (INSR) gene expression” value (PBMCs; [6])?
The value was −2.8 fold.

And the “macropain 26S subunit, non-ATPase, 10 (PSMD10) gene expression” value (PBMCs; [6])?
The value was 2.4 fold.

And the SCN12 gene expression (PBMCs; [7])?
The SCN12 gene expression was 5.4 fold.

What about the “SCNA1 (Na+ voltage-gated Al) gene expression” value (PBMCs; [7]) of the same substance?
The value was 7.8 fold.

And the “ITK expression, in words” value (PBMCs; naive cells as printed (last sentence of b342))?
The value was “mildly decreased”.

What about the ITK gene expression (PBMCs; naive cells, PIF 50 nM) of the same substance?
Its ITK gene expression is 1.6 fold.

And the “K+ channel (KCNK4) gene expression” value (PBMCs; naive cells, PIF 50 nM)?
Its value is 2.8 fold.

And the “IGF-binding protein-3 (IGF219 BP3) gene expression” value (PBMCs; [8])?
Its value is 4.6 fold.

What about the “insulin-like growth factor-1 (IGF1) gene expression” value (PBMCs; [8]) of the same substance?
The value was 2.8 fold.

And the “binding to Clorf87, in words” value (Clorf87)?
Its value is “target”.

And the “binding to Cass4, in words” value (Cass4)?
The value was “target”.

And the “binding to PDGFb, in words” value [1]?
Its value is “Targets”.

What about the “binding to NEK11, in words” value (NEK11) of the same substance?
The value was “bind”.

What about the “binding to ODF2L, in words” value [2] of the same substance?
The value was “observed”.

What about the “binding to FX enzyme, in words” value [3] of the same substance?
The value was “Targets”.

And the “binding to ITK, in words” value (ITK)?
The value was “Targets”.

And the “binding to DAPK3 (ZIPK), in words” value (DAPK3, (ZIPK))?
The value was “targets”.

What does the source list for “PIF-Alexa 647: Alexafluor647 conjugate of synthetic PIF (MVRIKPGSANKPSDD)”?
Z score (IDE; PIF-Alexa 647 250 nM and 2.5 pM): greater than 2; Z score (Kv1.3b; Kv1.3b two variants, PIF-Alexa 647 250 nM and 2.5 pM): greater than 2; Z-Score of one of the 11 interacting proteins [4]: greater than 3
